From patent US8455475B2 (Gruenenthal GmbH, priority 2009, dated 2013) come the findings set out here.

Assay [1] addresses T1, human B1R (bradykinin receptor 1) (Homo sapiens, UniProt P46663).
T1 construct: expressed in transfected cells; host or cells: CHO K1 cells
T1 sequence (P46663 1-353): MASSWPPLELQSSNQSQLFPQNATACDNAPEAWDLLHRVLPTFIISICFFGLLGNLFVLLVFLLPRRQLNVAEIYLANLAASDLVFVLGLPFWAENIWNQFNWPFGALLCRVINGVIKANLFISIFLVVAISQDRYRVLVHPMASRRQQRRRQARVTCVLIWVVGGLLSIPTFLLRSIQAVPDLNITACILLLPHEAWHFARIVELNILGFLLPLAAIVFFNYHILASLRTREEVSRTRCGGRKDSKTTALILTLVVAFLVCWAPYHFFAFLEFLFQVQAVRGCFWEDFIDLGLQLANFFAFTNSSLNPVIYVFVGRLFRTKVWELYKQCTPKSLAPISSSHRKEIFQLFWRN
Description: FLIPR Ca2+ assay (Fluo-4) on CHO K1 cells stably transfected with the human B1R gene (hB1R cells): % inhibition at 10 μM / IC50, agonist Lys-Des-Arg9-bradykinin. Type of assay: cell-based. Conditions: for inhibition at 10 µM: CHO-K1, human B1R. In a few lines:
(§1)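 Stable CHO K1 lines, Fluo-4 dye, probenecid-containing buffer. Cpd 10 μM or dose range, 10–20 min, then EC80 agonist (h: Lys-Des-Arg9-BK; r: Des-Arg9-BK). Readout peak FC; % inhibition vs max; IC50 from n=2–3, N≥2.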

Assay [2] has as its target T2, rat B1R (bradykinin receptor 1) (Rattus norvegicus, UniProt P97583).
T2 construct: expressed in transfected cells; host or cells: CHO K1 cells
T2 sequence (P97583 1-337): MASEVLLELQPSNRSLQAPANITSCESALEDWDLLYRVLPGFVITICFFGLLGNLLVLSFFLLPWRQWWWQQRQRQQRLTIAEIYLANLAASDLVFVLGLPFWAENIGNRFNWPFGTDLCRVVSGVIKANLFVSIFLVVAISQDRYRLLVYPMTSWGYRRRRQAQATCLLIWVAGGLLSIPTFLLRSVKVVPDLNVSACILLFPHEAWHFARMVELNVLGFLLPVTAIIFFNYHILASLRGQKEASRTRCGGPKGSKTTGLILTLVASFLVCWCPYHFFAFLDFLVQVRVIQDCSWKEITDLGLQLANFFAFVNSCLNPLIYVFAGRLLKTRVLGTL
Description: FLIPR Ca2+ assay (Fluo-4) on CHO K1 cells stably transfected with the B1R gene of the rat (rB1R cells): % inhibition at 10 μM / IC50, agonist Des-Arg9-bradykinin. Type of assay: cell-based. The settings on record: for inhibition at 10 µM: CHO-K1, rat B1R. In a few lines: as §1

Consider `Cc1cccc(C)c1C(=O)NC1c2cc(C(=O)N3CCC4(CC3)CCN(c3ccncc3)CC4)ccc2CC1(C)C` (stereo not shown) [IND_CC-308, N-[2,2-Dimethyl-6-(9-pyridin-4-yl-3,9-diazaspiro[5.5]undecane-3-carbonyl)-1,3-dihydro-inden-1-yl]-2,6-dimethyl-benzamide], for which the inhibition (as a rule, the change of the read-out against control, counted positive when it falls) at 10 µM is 97% in assay [1] and 106% in assay [2].

Turning to `O=C(N[C@@H]1CCCc2cc(F)c(C(=O)N3CCC4(CC3)CCN(c3ccncc3)CC4)cc21)c1ccccc1Cl` [Example H-88], the inhibition at 10 µM in assay [1] came to 100%; in assay [2], 104%.

For the compound `O=C(NC1CCc2ccc(C(=O)N3CCC4(CCN(c5ccncc5)CC4)C3)cc21)c1c(Cl)cccc1Cl` (stereo not shown) [IND_CC-289, 2,6-Dichloro-N-[6-(8-pyridin-4-yl-2,8-diazaspiro[4.5]decane-2-carbonyl)-2,3-dihydro-1H-inden-1-yl]-benzamide], the inhibition at 10 µM turned out to be 100% in assay [1] and 104% in assay [2].

Consider `COc1ccc(C(=O)N[C@@H]2CCc3ccc(C(=O)N4CCC5(CC4)CCN(c4ccncc4)C5)cc32)c(Cl)c1` [Example H-60, 2-Chloro-4-methoxy-N-[(1R)-6-(3-pyridin-4-yl-3,8-diazaspiro[4.5]decane-8-carbonyl)-2,3-dihydro-1H-inden-1-yl]-benzamide], for which the values for the inhibition at 10 µM in assay [1] and in assay [2] were 82% and 101%, respectively.

Turning to `CN(C1CCc2ccc(C(=O)N3CCC4(CC3)CCN(c3ccncc3)CC4)cc21)S(=O)(=O)Cc1ccccc1C(F)(F)F` (stereo not shown) [IND_CC-226, N-Methyl-N-[6-(9-pyridin-4-yl-3,9-diazaspiro[5.5]undecane-3-carbonyl)-2,3-dihydro-1H-inden-1-yl]-1-[2-(trifluoromethyl)-phenyl]-methanesulfonic acid amide], the inhibition at 10 µM stood at 98% in assay [1] and 101% in assay [2].

In the case of `O=C(N[C@H]1CCc2ccc(C(=O)N3CCC4(CCN(c5ccncc5)CC4)C3)cc21)c1ccccc1Cl` [Example H-20, 2-chloro-N-[(1S)-6-(8-pyridin-4-yl-3,8-diazaspiro[4.5]decane-3-carbonyl)-2,3-dihydro-1H-indecn-1-yl]-benzamide], the inhibition at 10 µM in assay [1] was 100%; in assay [2] it was 105%.

Turning to `O=C(NC1CCc2ccc(C(=O)N3CCC4(CC3)CCN(c3ccncc3)C4)cc21)c1ccc(F)cc1Cl` (stereo not shown) [IND_CC-263, 2-Chloro-4-fluoro-N-[6-(2-pyridin-4-yl-2,8-diazaspiro[4.5]decane-8-carbonyl)-2,3-dihydro-1H-inden-1-yl]-benzamide], the figures for the inhibition at 10 µM in assay [1] and in assay [2] were 100% and 81%, respectively.

With `CC1(C)Cc2ccc(C(=O)N3CCC4(CC3)CCN(c3ccncc3)CC4)cc2C1NC(=O)c1ccc(Cl)s1` (stereo not shown) [Ind_CC-066, 5-chloro-N-[2,2-dimethyl-6-(9-pyridin-4-yl-3,9-diazaspiro[5.5]undecane-3-carbonyl)-1,3-dihydro-inden-1-yl]-thiophene-2-carboxylic acid amide], the inhibition at 10 µM in assay [1] amounted to 82%; in assay [2] it was 98%.

Take `O=C(NC1CCc2ccc(C(=O)N3CCC4(CCN(C(=O)Cc5ccc(Cl)cc5)CC4)C3)cc21)c1ccccc1Cl` (stereo not shown) [IND_CC-577, 2-Chloro-N-[6-[8-[2-(4-chlorophenyl)-acetyl]-2,8-diazaspiro[4.5]decane-2-carbonyl]-2,3-dihydro-1H-inden-1-yl]-benzamide]: the results for the inhibition at 10 µM in assay [1] and in assay [2] were 21% and 96%, respectively.

Turning to `O=C(NC1CCc2ccc(C(=O)N3CCC4(CCN(Cc5ccc[nH]5)CC4)CC3)cc21)c1ccccc1Cl` (stereo not shown) [IND_CC-507, 2-Chloro-N-[6-[9-(1H-pyrrol-2-yl-methyl)-3,9-diazaspiro[5.5]undecane-3-carbonyl]-2,3-dihydro-1H-inden-1-yl]-benzamide], the inhibition at 10 µM stood at 2% in assay [1] and 100% in assay [2].

Regarding `O=C(NC1CCc2ccc(C(=O)N3CCC4(CCN(c5ccncc5)CC4)C3)cc21)c1cc(Cl)ccc1Cl` (stereo not shown) [IND_CC-245, 2,5-Dichloro-N-[6-(8-pyridin-4-yl-2,8-diazaspiro[4.5]decane-2-carbonyl)-2,3-dihydro-1H-inden-1-yl]-benzamide], the results for the inhibition at 10 µM in assay [1] and in assay [2] were 100% and 101%, respectively.

Consider `O=C(/C=C/c1ccccc1Cl)NC1CCc2ccc(C(=O)N3CCC4(CC3)CCN(c3ccncc3)CC4)cc21` (stereo not shown) [Ind_CC-008, (E)-3-(2-chlorophenyl)-N-[6-(9-pyridin-4-yl-3,9-diazaspiro[5.5]undecane-3-carbonyl)-2,3-dihydro-1H-inden-1-yl]-acrylamide], for which the inhibition at 10 µM in assay [1] is 72%; in assay [2] it was 74%.

In the case of `Cc1cccc(Cl)c1S(=O)(=O)NC1c2cc(C(=O)N3CCC4(CC3)CCN(c3ccncc3)CC4)ccc2CC1(C)C` (stereo not shown) [IND_CC-240, 2-Chloro-N-[2,2-dimethyl-6-(9-pyridin-4-yl-3,9-diazaspiro[5.5]undecane-3-carbonyl)-1,3-dihydro-inden-1-yl]-6-methyl-benzenesulfonic acid amide], the inhibition at 10 µM in assay [1] came out at 95%; in assay [2], 99%.

For `CC1(C)CC(NS(=O)(=O)CCc2ccccc2Cl)c2cc(C(=O)N3CCC4(CC3)CCN(c3ccncc3)CC4)ccc21` (stereo not shown) [IND_CC-260, 2-(2-Chlorophenyl)-N-[3,3-dimethyl-6-(3-pyridin-4-yl-3,9-diazaspiro[5.5]-undecane-9-carbonyl)-1,2-dihydro-inden-1-yl]-ethanesulfonic acid amide], the inhibition at 10 µM in assay [1] and in assay [2] was 100% in each case.

Turning to `O=C(NC1CCc2ccc(C(=O)N3CCC4(CCN(c5cc[n+]([O-])cc5)CC4)C3)cc21)c1ccccc1Cl` (stereo not shown) [Example H-129, 2-Chloro-N-[6-[8-(1-oxido-pyridin-1-ium-4-yl)-3,8-diazaspiro[4.5]decane-3-carbonyl]-2,3-dihydro-1H-inden-1-yl]-benzamide], the inhibition at 10 µM in assay [1] worked out at 100%; in assay [2], 102%.

On to `O=C(c1ccc2c(c1)[C@@H](N1Cc3cccc(Cl)c3C1=O)CCC2)N1CCC2(CCN(c3ccncc3)CC2)C1` [Example H-15, 7-chloro-2-[(1S)-7-(8-pyridin-4-yl-3,8-diazaspiro[4.5]decane-3-carbonyl)-1,2,3,4-tetrahydro-naphthalen-1-yl]-2,3-dihydro-isoindol-1-one], for which the inhibition at 10 µM was found to be 59% in assay [1] and 11% in assay [2].

In the case of `O=C(Nc1ccc(Cl)c(Cl)c1)NC1CCc2ccc(C(=O)N3CCC4(CC3)CCN(c3ccncc3)CC4)cc21` (stereo not shown) [Ind_CC-011], in assay [1] (human B1R), the “% Inhibition (human B1R) at 10 μM” value turned out to be 36%. Also, the “% Inhibition (rat B1R) at 10 μM” value in assay [2] (rat B1R) stood at 76%.

For `COc1ccc2cc(C(=O)N[C@@H]3CCc4ccc(C(=O)N5CCC6(CC5)CCN(c5ccncc5)C6)cc43)ccc2c1` [Example H-68, 6-Methoxy-N-[(1R)-6-(3-pyridin-4-yl-3,8-diazaspiro[4.5]decane-8-carbonyl)-2,3-dihydro-1H-inden-1-yl]-naphthalene-2-carboxylic acid amid], the inhibition at 10 µM was 96% in assay [1] and 93% in assay [2].

Turning to `CC1(C)Cc2ccc(C(=O)N3CCC4(CC3)CCN(c3ccncc3)CC4)cc2C1NC(=O)c1c(Cl)cccc1Cl` (stereo not shown) [IND_CC-287, 2,6-Dichloro-N-[2,2-dimethyl-6-(9-pyridin-4-yl-3,9-diazaspiro[5.5]undecane-3-carbonyl)-1,3-dihydro-inden-1-yl]-benzamide], the inhibition at 10 µM amounted to 99% in assay [1] and 105% in assay [2].

With `Cc1cc2c(cc1C(=O)N1CCC3(CC1)CCN(c1ccncc1)C3)[C@H](NC(=O)c1ccccc1Cl)CC2` [Example H-59, 2-Chloro-N-[(1R)-5-methyl-6-(3-pyridin-4-yl-3,8-diazaspiro[4.5]decane-8-carbonyl)-2,3-dihydro-1H-inden-1-yl]-benzamide], the inhibition at 10 µM amounted to 99% in assay [1] and 105% in assay [2].

As for `O=C(c1ccc2c(c1)CC[C@H]2N1Cc2cccc(Cl)c2C1=O)N1CCC2(CCN(c3ccncc3)CC2)C1` [Example H-160], the inhibition at 10 µM in assay [1] stood at 98%; in assay [2] it was 105%.

Regarding `O=C(NC1CCc2ccc(C(=O)N3CCC4(CC3)CCN(c3ccc(C(F)(F)F)cc3)CC4)cc21)c1ccc(F)cc1Cl` (stereo not shown) [IND_CC-274, 2-Chloro-4-fluoro-N-[6-[9-[4-(trifluoromethyl)-phenyl]-3,9-diazaspiro[5.5]undecane-3-carbonyl]-2,3-dihydro-1H-inden-1-yl]-benzamide], the inhibition at 10 µM in assay [1] stood at 8%; in assay [2], 102%.

For the compound `Cc1cccc(C)c1C(=O)NC1CCc2ccc(C(=O)N3CCC4(CC3)CCN(c3ccncc3)CC4)cc21` (stereo not shown) [IND_CC-294, 2,6-Dimethyl-N-[6-(9-pyridin-4-yl-3,9-diazaspiro[5.5]undecane-3-carbonyl)-2,3-dihydro-1H-inden-1-yl]-benzamide], the inhibition at 10 µM is 99% in assay [1] and 105% in assay [2].
